Data taken from patent US8956869B2, “Peptide inhibiting differentiation of hematopoietic stem cells or hematopoietic precursor cells and use of same” (Kyushu University, National University Corporation, priority 2009, dated 2015).
Where a SMILES comes first, the peptide text is derived from it. Where no end group is shown, it is not given here. The star is where a group is joined. Myristoyl = CCCCCCCCCCCCCC(=O)*

What was measured:
Type in all cases: cell-based
[1] = tested on: human cord blood CD34(+) hematopoietic stem cell population; experiment: Confirmation of induction of cell death (PI staining, live cell ratio); details: KS-13 1 and 10 μg/mL, 11 days
Experimental: (§1) (1-2) In order to confirm induction of cell death, cells that were liquid-cultured for 11 days in each experimental system were stained with PI, and the ratio of live cells was calculated based on the measured number of dead cells.
(§2) The live cell ratio {(the number of live cells/(the number of live cells+the number of dead cells)} was calculated for each experimental system (control, positive control, KS-13 (1 μg/mL), and KS-13 (10 μg/mL)), using cells that were liquid-cultured for 11 days as the target cells. The results are shown below.

[2] = as above; details: human, liquid-cultured 11 days
Experimental: as §1, §2

[3] = tested on: mouse fetal liver hematopoietic stem cells (CD45(+)c-Kit(+)Sca-1 (+)); experiment: Hematopoietic colony-forming cell assay; details: for number of colonies: peptide 30 μg/mL, culturing for 12 days, 1,000 cells/dish
Experimental: KS-13 (10 μg/mL or 30 μg/mL) was added to a semisolid medium (Methocult M3434 produced by STEMCELL Technologies) containing cell stimulatory factors (50 ng/mL of rm SCF, 10 ng/mL of rm IL-3, 10 ng/mL of rh IL-6, and 3 U/mL of rh EPO) (rm: recombinant form; rh: recombinant human form), and mouse fetal liver hematopoietic stem cells (CD45(+)c-Kit(+)Sca-1 (+)) (1,000 cells/dish) were cultured. Hematopoietic colony-forming cell assay was performed to evaluate the hematopoietic potential of the cells. Further, for comparison, hematopoietic colony-forming cell assay was performed in a similar manner using a KS-13-free liquid medium (none), and the hematopoietic potential of the cells was evaluated.
Myristoylated KS-13 (30 μg/mL) in which the N-terminal of KS-13 (SEQ ID NO: 1) is myristoylated and control peptide (NQVSIGCPCDGKK: SEQ ID NO: 22) (30 μg/mL) were added to a semisolid medium (Methocult M3434 produced by STEMCELL Technologies) containing cell stimulatory factors (50 ng/mL of rm SCF, 10 ng/mL of rm IL-3, 10 ng/mL of rh IL-6, and 3 U/mL of rh EPO) (rm: recombinant form; rh: recombinant human form) to culture mouse fetal liver hematopoietic stem cells (CD45(+)c— Kit(+)Sca-1(+)) (1,000 cells/dish) therein. Then, hematopoietic colony-forming cell assay was performed to evaluate the hematopoietic potential of the cells.

Compound | induction of cell death [1] | viability at 264 h, 1 µg/mL ([2]; KS-13 1 μg/mL) | viability at 264 h, 10 µg/mL ([2]; KS-13 10 μg/mL) | number of colonies [3] | colony formation versus control peptide ([3]; 30 μg/mL, 12 days)
CC[C@H](C)[C@H](NC(=O)[C@@H](NC(=O)[C@H](CS)NC(=O)[C@@H]1CCCN1C(=O)CNC(=O)[C@H](CC(=O)O)NC(=O)[C@H](CCCCN)NC(=O)[C@H](CCCCN)NC(=O)[C@H](CCC(N)=O)NC(=O)[C@@H](N)CS)C(C)C)C(=O)N[C@@H](CC(N)=O)C(=O)NCC(=O)N[C@@H](CO)C(=O)O [KS-13, Cys Gln Lys Lys Asp Gly Pro Cys Val Ile Asn Gly Ser] (H-CQKKDGPCVINGS-OH) | does not induce cell death | 97.5% | 97.6% | – | –
NQVSIGCPCDGKK (Control peptide) [reference compound] | – | – | – | 111.1 | –
myristoylated KS-13: KS-13 (SEQ ID NO: 1) in which the N-terminal is myristoylated (Myristoyl-CQKKDGPCVINGS; cysteine pairing not given here; listed as Homo sapiens) | – | – | – | 93.9 | inhibited colony formation more than the control
